The values below come from ChEMBL document CHEMBL4680113, “Tigliane Diterpenoids as a New Type of Antiadipogenic Agents Inhibit GRα-Dexras1 Axis in Adipocytes” (J Med Chem, 2019).

In general, inhibition refers to the change of the read-out against control, counted positive when it falls.

The source made the active and inactive calls. The calls are words filed in the database; no cut-off is given here.

The subject of data set [1] is 3T3-L1. The experiment in a line: Lipid lowering activity in mouse 3T3-L1 cells assessed as reduction in adipogenic cocktail-induced triglyceride levels at 10 uM incubated for 6 days by GPO-POD assay. The following applies: for inhibition: time 6.0 day; for inhibition at 10 µM: 3T3-L1, 144 h, time 6 day. The data set is classed as functional.
In data set [2] the test system is 3T3-L1. Briefly: Lipid lowering activity in mouse 3T3-L1 cells assessed as reduction in adipogenic cocktail-induced triglyceride levels at 1 to 10 uM by Oil-Red O staining. The data set is classed as functional, cell-based. The following applies: dose 1-10 µM.
Data set [3] concerns 3T3-L1. Briefly: Toxicity in mouse 3T3-L1 cells assessed as reduction in cell viability at 10 uM incubated for 6 days by LDH release assay. The data set is classed as cell-based. The following applies: 3t3-l1, 144 h, time 6 day. In general terms: LDH in the medium is a marker of cell lysis.
The subject of data set [4] is 3T3-L1. Briefly: Activation of adipogenic cocktail-induced PPARgamma mRNA expression in mouse 3T3-L1 cells at 1 uM by RT-qPCR analysis. In kind it is functional, cell-based. On the technique in general: In qPCR the cycle at which signal appears reflects the starting amount.
Data set [5] has as its system 3T3-L1. Briefly: Lipid increasing activity in mouse 3T3-L1 cells assessed as increase in adipogenic cocktail induced triglyceride levels at 1 uM incubated for 6 days by GPO-POD assay. The following applies: time 6.0 day. In kind it is functional, cell-based.
For data set [6], the system named is 3T3-L1. Briefly: Activation of GR-alpha in mouse 3T3-L1 cells assessed as increase in adipogenic cocktail-induced Dexras1 mRNA expression at 10 uM incubated for 4 hrs by RT-qPCR analysis. In kind it is cell-based. The following applies: filed as agonist.
Data set [7] relates to 3T3-L1. Briefly: Inhibition of adipogenic cocktail-induced PPARgamma mRNA expression in mouse 3T3-L1 cells at 1 uM by RT-qPCR analysis. The data set is classed as functional, cell-based.
The test system of data set [8] is 3T3-L1. The experiment in a line: Lipid lowering activity in mouse 3T3-L1 cells assessed as reduction in adipogenic cocktail induced triglyceride levels at 1 uM incubated for 6 days by GPO-POD assay. The data set is classed as functional, cell-based. The following applies: time 6.0 day.
Data set [9] has as its system 3T3-L1. Briefly: Inhibition of GR-alpha in mouse 3T3-L1 cells assessed as reduction in adipogenic cocktail-induced Dexras1 mRNA expression at 10 uM incubated for 4 hrs by RT-qPCR analysis. The data set is classed as cell-based. The following applies: filed as antagonist.
Data set [10] has as its system 3T3-L1. The experiment in a line: Inhibition of adipogenic cocktail-induced GR-alpha nuclear translocation in mouse 3T3-L1 cells at 10 uM after 8 hrs by Western blot analysis. The data set is classed as cell-based. The conditions noted are these: filed as antagonist. For orientation: In western blotting, separated proteins are transferred to a membrane and probed.

Turning to `CCC(=O)O[C@@H]1[C@@H]2[C@@H](OC(C)=O)[C@@]34CO[C@@](C)([C@H](OC(C)=O)[C@@]2(OC(C)=O)C[C@@H]1C)[C@@H]3[C@@H]1[C@@H](C[C@]1(C)OC(C)=O)[C@@H](OC(=O)C(C)CC)C4=O` (some centres not stated), in data set [1], the inhibition result is “inactive”.
With `CC1=C[C@@H]2[C@H](C1=O)[C@H](O)C(C)=C[C@H]1[C@@H]3C(C)(C)[C@]3(OC(=O)C(C)C)[C@H](OC(=O)c3ccccc3)[C@@H](C)[C@]21O` [EUPHODENDRIANE A], the inhibition at 10 µM in [1] is more than 50%. For the same compound, in data set [2], the inhibition result was “Active”. In data set [3], the Activity entry is “Non-Toxic”.
The matching figures for `CCC(=O)O[C@@H]1[C@@H]2[C@@H](OC(=O)c3ccccc3)[C@@]3(COC(C)=O)[C@@H]([C@@H]4[C@H](C[C@H]3OC(C)=O)C4(C)C)[C@](C)(OC(C)=O)C(=O)[C@@]2(O)C[C@@H]1C`: more than 60%, “Active” and “Non-Toxic”.
Take `CC(=O)O[C@@H]1[C@@H]2[C@@H](OC(C)=O)[C@@]34CO[C@@](C)([C@H](OC(C)=O)[C@@]2(OC(C)=O)C[C@@H]1C)[C@@H]3[C@@H]1[C@@H](C[C@]1(C)OC(C)=O)[C@@H](OC(=O)C(C)C)C4=O`: in [1], the inhibition entry is “inactive”.
Still for that read-out and setting: the same measure for `CC(=O)O[C@@H]1[C@H]2[C@@H](OC(=O)c3cccnc3)[C@@H](C)C[C@]2(OC(C)=O)[C@@H](OC(C)=O)[C@]2(C)OC[C@]13C(=O)[C@H](OC(=O)c1ccccc1)[C@@H]1C[C@](C)(OC(C)=O)[C@@H]1[C@@H]23`: “inactive”; for `CC(=O)O[C@@H]1[C@H]2[C@@H](OC(=O)c3cccnc3)[C@@H](C)C[C@]2(OC(C)=O)[C@@H](OC(C)=O)[C@]2(C)OC[C@]13C(=O)[C@H](OC(=O)C(C)C)[C@@H]1C[C@](C)(OC(C)=O)[C@@H]1[C@@H]23`: “inactive”.
On to `CCC(=O)O[C@@H]1[C@@H]2[C@@H](OC(C)=O)[C@@]34CO[C@@](C)([C@H](OC(C)=O)[C@@]2(OC(C)=O)C[C@@H]1C)[C@@H]3[C@@H]1[C@@H](C[C@]1(C)OC(C)=O)[C@@H](OC(=O)C(C)C)C4=O`, for which the inhibition at 10 µM in data set [1] is more than 60%. Besides, the inhibition entry in [2] was “Active”. Moreover, the Activity result in data set [3] was “Non-Toxic”.
Regarding `CCC(=O)O[C@@H]1[C@@H]2[C@@H](OC(C)=O)[C@@]34CO[C@@](C)([C@@H](OC(=O)C(C)CC)[C@@]2(OC(C)=O)C[C@@]1(C)OC(C)=O)[C@@H]3[C@@H](C(C)(C)OC(C)=O)C=C[C@H]4OC(C)=O` (some centres not stated), in data set [1], the inhibition at 10 µM is more than 60%. The inhibition result in data set [2] was “Active”. Further, in [3], the Activity entry is “Non-Toxic”.
Turning to `CCC(=O)O[C@@H]1[C@@H]2[C@@H](OC(C)=O)[C@@]34CO[C@@](C)([C@H](OC(C)=O)[C@@]2(O)C[C@@H]1C)[C@@H]3[C@@H]1[C@@H](C[C@]1(C)OC(C)=O)[C@@H](OC(=O)c1ccccc1)C4=O`, the inhibition result in [1] is “inactive”.
With `CC1=C[C@H]2[C@@H]3C(C)(C)[C@]3(OC(=O)C(C)C)[C@H](OC(=O)c3ccccc3)[C@@H](C)[C@]2(O)[C@@H]2C=C(C)C(=O)C2=C1`, the inhibition at 10 µM in [1] is more than 50%. The inhibition result in data set [2] was “Active”. Besides, the Activity entry in [3] is on record as “Non-Toxic”.
In the case of `CCC(=O)O[C@@H]1[C@@H]2[C@@H](OC(C)=O)[C@@]34CO[C@@](C)([C@H](OC(=O)c5ccccc5)[C@@]2(OC(C)=O)C[C@@H]1C)[C@@H]3[C@@H](C(C)(C)OC(C)=O)C=CC4=O`, the inhibition result in data set [1] is “Active”.
Regarding `CC(=O)O[C@@H]1[C@H]2[C@@H](OC(C)=O)[C@](C)(O)C[C@]2(OC(C)=O)[C@H](OC(=O)c2ccccc2)[C@]2(C)OC[C@]13[C@H](OC(C)=O)C=C[C@H](C(C)(C)OC(C)=O)[C@@H]23`, the inhibition at 10 µM in data set [1] was more than 60%. Besides, the inhibition entry in data set [2] was “Active”. The Activity entry in data set [3] is “Non-Toxic”.
With `CC(=O)O[C@@H]1[C@H]2[C@@H](OC(=O)c3cccnc3)[C@@H](C)C[C@]2(OC(C)=O)[C@@H](OC(C)=O)[C@]2(C)OC[C@]13C(=O)[C@@H](O)[C@@H]1C[C@](C)(OC(C)=O)[C@@H]1[C@@H]23`, the inhibition result in data set [1] was “inactive”.
Turning to `CC(=O)O[C@@H]1[C@H]2[C@@H](OC(C)=O)[C@](C)(OC(C)=O)C[C@]2(OC(C)=O)[C@H](OC(=O)c2ccccc2)[C@]2(C)OC[C@]13[C@H](OC(C)=O)C=C[C@H](C(C)(C)OC(C)=O)[C@@H]23`, the inhibition at 10 µM in data set [1] was more than 60%. Besides, the inhibition result in data set [2] is “Active”. Moreover, the Activity entry in data set [3] is “Non-Toxic”.
`CC(=O)O[C@@H]1[C@H]2[C@@H](OC(=O)c3cccnc3)[C@@H](C)C[C@]2(OC(C)=O)[C@@H](OC(C)=O)[C@]2(C)OC[C@]13C(=O)[C@H](O)[C@@H]1C[C@](C)(OC(C)=O)[C@@H]1[C@@H]23`: the inhibition result in data set [1] is “inactive”. Further, the inhibition entry in [2] is “Active”. In [3], the Activity result is given as “Non-Toxic”.
For `C[C@H]1C[C@@H]2[C@H]([C@@H](O)C[C@@]3(C)[C@H]2CC[C@]3(O)C(=O)CO)[C@@]2(C)C=CC(=O)C=C12`, the result in [4], in data set [5] and in data set [6] was Active.
For the compound `CCCC(=O)O[C@@H]1[C@@H]2[C@@H](OC(C)=O)[C@@]34CO[C@@](C)([C@H](OC(C)=O)[C@@]2(OC(C)=O)C[C@@H]1C)[C@@H]3[C@@H](C(C)(C)OC(C)=O)C=C[C@H]4OC(C)=O`, in data set [1], the inhibition at 10 µM was more than 60%. Moreover, the inhibition result in [2] is “Active”. In addition, the Activity entry in data set [3] is given as “Non-Toxic”.
For `CCC(=O)O[C@@H]1[C@@H]2[C@@H](OC(C)=O)[C@@]34CO[C@@](C)([C@H](OC(C)=O)[C@@]2(OC(C)=O)C[C@@H]1C)[C@@H]3[C@@H]1[C@@H](C[C@]1(C)OC(C)=O)[C@@H](O)C4=O`, the inhibition entry in data set [1] and in [2] was “Active” throughout. The Activity result in data set [3] was “Non-Toxic”.
Regarding `CC(=O)O[C@@H]1[C@]2(C)OC[C@]3(C(=O)C=C[C@H](C(C)(C)OC(C)=O)[C@@H]23)[C@H](OC(C)=O)[C@H]2[C@@H](OC(=O)c3cccnc3)[C@@H](C)C[C@@]21OC(C)=O`, the inhibition result in data set [1] is “inactive”.
With `CCC(=O)O[C@@H]1[C@@H]2[C@@H](OC(C)=O)[C@@]34CO[C@@](C)([C@H](OC(C)=O)[C@@]2(OC(C)=O)C[C@@H]1C)[C@@H]3[C@@H]1[C@@H](C[C@]1(C)OC(C)=O)[C@@H](OC(=O)c1ccccc1)C4=O`, the inhibition result in [1] and in data set [2] was “Active” in each case. For the same compound, in data set [3], the Activity result was “Non-Toxic”.
On to `CC(=O)O[C@@H]1[C@@H]2[C@@H](OC(C)=O)[C@@]34CO[C@@](C)([C@H](OC(C)=O)[C@@]2(OC(C)=O)C[C@@H]1C)[C@@H]3[C@@H]1[C@@H](C[C@]1(C)OC(C)=O)[C@@H](OC(=O)c1ccccc1)C4=O`, for which the inhibition entry in [1] was “Active”.
Same read-out and setting: the same measure for `CCCC(=O)O[C@@H]1[C@@H]2[C@@H](OC(C)=O)[C@@]34CO[C@@](C)([C@H](OC(C)=O)[C@@]2(OC(C)=O)C[C@@H]1C)[C@@H]3[C@@H]1[C@@H](C[C@]1(C)OC(C)=O)[C@@H](OC(=O)c1ccccc1)C4=O`: “Active”.
Consider `CC(=O)O[C@@H]1[C@@H]2[C@@H](OC(C)=O)[C@@]34CO[C@@](C)([C@H](OC(C)=O)[C@@]2(OC(C)=O)C[C@@H]1C)[C@@H]3[C@@H]1[C@@H](C[C@]1(C)OC(C)=O)[C@H](O)C4=O`, for which, in data set [1], the inhibition at 10 µM was more than 60%. The inhibition result in [2] was “Active”. For the same compound, in data set [3], the Activity result is “Non-Toxic”.
As for `CC(=O)OC[C@]12[C@H](OC(=O)c3ccccc3)[C@H]3[C@@H](OC(=O)c4cccnc4)[C@@H](C)C[C@]3(O)C(=O)[C@@](C)(OC(C)=O)[C@@H]1[C@@H]1[C@H](C[C@H]2OC(C)=O)C1(C)C`, in data set [1], the inhibition at 10 µM is more than 60%. Moreover, in data set [2], the inhibition result is “Active”. In addition, the Activity result in [3] is on record as “Non-Toxic”.
Regarding `CC#C[C@]1(O)CC[C@H]2[C@@H]3CCC4=CC(=O)CCC4=C3[C@@H](c3ccc(N(C)C)cc3)C[C@@]21C`, the inhibition result in data set [7], in data set [8], in [9] and in [10] was “Active” each time.
`CC(=O)O[C@@H]1[C@@H]2[C@@H](OC(C)=O)[C@@]34CO[C@@](C)([C@H](OC(=O)c5ccccc5)[C@@]2(O)C[C@@H]1C)[C@@H]3[C@@H]1[C@@H](C[C@]1(C)OC(C)=O)[C@@H](OC(=O)c1ccccc1)C4=O`: the inhibition result in data set [1] is “inactive”.
